Results on three compounds are retold here after paper PMC10528299, “Targeting FAK/PYK2 with SJP1602 for Anti-Tumor Activity in Triple-Negative Breast Cancer” (Current Issues in Molecular Biology, 2023).

Common to all, as to test: Eurofins kinase profiling
Assay type in all cases: biochemical

The target in one test is T1, NIM1(h) (Homo sapiens, UniProt Q8IY84).
T1 construct: purchased Eurofins KinaseProfiler
To be noted: read-out: residual kinase activity NIM1(h). In outline:
(§1)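 Panel of 110 assays under standard conditions; these protein kinases were tested in the radiometric KinaseProfiler assay at a single 1 µM compound concentration.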

The target of the next test is T2, ZAP-70(h) (Homo sapiens, UniProt P43403).
T2 construct: purchased Eurofins KinaseProfiler
T2 sequence (P43403 1-619): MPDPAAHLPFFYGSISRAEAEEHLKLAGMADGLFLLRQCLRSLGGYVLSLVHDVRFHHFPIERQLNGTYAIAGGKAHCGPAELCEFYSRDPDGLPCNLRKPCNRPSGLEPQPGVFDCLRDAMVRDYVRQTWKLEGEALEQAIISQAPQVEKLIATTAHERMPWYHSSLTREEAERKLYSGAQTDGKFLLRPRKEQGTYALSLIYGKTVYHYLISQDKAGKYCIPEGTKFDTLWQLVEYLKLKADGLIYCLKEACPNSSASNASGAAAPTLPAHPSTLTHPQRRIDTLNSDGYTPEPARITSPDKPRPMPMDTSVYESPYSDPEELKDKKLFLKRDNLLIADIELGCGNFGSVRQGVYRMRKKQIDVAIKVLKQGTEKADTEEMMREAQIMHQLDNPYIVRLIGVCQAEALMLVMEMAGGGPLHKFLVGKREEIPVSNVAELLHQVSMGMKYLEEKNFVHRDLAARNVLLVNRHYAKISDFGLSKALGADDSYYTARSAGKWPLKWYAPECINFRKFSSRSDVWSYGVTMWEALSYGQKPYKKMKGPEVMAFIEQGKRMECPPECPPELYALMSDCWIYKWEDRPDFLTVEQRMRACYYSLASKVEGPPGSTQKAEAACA
To be noted: read-out: residual kinase activity ZAP-70(h). In outline: as §1

The target in another test is T3, Pim-1(h) (Homo sapiens, UniProt P11309).
T3 construct: purchased Eurofins KinaseProfiler
To be noted: read-out: residual kinase activity Pim-1(h). In outline: as §1

A further test concerns the target T4, CHK2(h) (Homo sapiens, UniProt O96017).
T4 construct: purchased Eurofins KinaseProfiler
To be noted: read-out: residual kinase activity CHK2(h). In outline: as §1

For the next test, the target named is T5, HIPK2(h) (Homo sapiens, UniProt Q9H2X6).
T5 construct: purchased Eurofins KinaseProfiler
The settings on record: read-out: residual kinase activity HIPK2(h). In outline:
as §1

The next test deals with T6, IKKα(h) (Homo sapiens, UniProt O15111).
T6 construct: purchased Eurofins KinaseProfiler
T6 sequence (O15111 1-745): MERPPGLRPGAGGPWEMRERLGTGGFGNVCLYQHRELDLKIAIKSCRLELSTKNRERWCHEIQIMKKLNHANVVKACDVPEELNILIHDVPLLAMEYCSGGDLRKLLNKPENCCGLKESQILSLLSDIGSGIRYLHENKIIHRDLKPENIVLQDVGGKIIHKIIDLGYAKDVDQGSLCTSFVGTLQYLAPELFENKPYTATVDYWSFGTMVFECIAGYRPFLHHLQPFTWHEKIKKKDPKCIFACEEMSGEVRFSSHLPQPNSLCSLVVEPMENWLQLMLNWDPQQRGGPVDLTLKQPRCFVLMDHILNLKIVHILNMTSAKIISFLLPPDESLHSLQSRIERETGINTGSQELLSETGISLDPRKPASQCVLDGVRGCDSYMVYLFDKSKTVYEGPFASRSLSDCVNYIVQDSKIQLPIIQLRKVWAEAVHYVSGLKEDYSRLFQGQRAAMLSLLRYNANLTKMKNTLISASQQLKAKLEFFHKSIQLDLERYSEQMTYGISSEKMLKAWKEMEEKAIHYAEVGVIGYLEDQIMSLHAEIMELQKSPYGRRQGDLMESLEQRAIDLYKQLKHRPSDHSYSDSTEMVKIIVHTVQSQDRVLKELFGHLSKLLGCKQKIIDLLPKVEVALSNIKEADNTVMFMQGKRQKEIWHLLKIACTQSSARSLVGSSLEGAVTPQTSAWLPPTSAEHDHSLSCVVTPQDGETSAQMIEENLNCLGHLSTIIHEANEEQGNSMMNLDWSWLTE
To be noted: read-out: residual kinase activity IKKα(h). In outline:
as §1

Another test addresses T7, PKC μ(h) (Homo sapiens, UniProt Q15139).
T7 construct: purchased Eurofins KinaseProfiler
T7 sequence (Q15139 1-912): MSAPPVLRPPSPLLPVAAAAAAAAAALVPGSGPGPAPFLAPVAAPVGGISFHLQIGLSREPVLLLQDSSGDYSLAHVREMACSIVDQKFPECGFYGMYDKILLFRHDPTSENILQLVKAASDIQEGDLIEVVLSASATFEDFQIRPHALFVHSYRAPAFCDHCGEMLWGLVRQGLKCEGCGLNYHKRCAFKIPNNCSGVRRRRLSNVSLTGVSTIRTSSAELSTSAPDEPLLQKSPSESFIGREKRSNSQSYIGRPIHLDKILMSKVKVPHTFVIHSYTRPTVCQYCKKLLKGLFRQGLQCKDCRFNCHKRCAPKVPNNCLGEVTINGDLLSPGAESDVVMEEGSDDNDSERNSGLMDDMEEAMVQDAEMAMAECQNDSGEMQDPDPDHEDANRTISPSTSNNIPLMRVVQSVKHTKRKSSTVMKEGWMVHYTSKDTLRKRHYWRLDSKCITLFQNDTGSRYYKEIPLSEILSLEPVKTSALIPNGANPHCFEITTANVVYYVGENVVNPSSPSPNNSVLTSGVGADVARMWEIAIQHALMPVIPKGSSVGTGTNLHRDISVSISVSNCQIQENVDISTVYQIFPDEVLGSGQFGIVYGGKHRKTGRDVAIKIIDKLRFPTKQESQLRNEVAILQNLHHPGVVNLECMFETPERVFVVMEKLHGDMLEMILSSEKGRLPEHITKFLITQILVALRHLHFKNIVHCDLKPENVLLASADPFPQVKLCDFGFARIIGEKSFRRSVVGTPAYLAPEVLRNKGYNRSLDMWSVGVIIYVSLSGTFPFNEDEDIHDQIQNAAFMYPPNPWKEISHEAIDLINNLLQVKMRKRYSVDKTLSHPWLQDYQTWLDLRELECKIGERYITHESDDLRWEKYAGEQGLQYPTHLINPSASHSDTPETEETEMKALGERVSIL
The settings on record: read-out: residual kinase activity PKC μ(h). In outline: as §1

Another test addresses T8, BRK(h) (Homo sapiens, UniProt Q13882).
T8 construct: purchased Eurofins KinaseProfiler
To be noted: read-out: residual kinase activity BRK(h). In outline:
as §1

T4 sequence (O96017 whole entry): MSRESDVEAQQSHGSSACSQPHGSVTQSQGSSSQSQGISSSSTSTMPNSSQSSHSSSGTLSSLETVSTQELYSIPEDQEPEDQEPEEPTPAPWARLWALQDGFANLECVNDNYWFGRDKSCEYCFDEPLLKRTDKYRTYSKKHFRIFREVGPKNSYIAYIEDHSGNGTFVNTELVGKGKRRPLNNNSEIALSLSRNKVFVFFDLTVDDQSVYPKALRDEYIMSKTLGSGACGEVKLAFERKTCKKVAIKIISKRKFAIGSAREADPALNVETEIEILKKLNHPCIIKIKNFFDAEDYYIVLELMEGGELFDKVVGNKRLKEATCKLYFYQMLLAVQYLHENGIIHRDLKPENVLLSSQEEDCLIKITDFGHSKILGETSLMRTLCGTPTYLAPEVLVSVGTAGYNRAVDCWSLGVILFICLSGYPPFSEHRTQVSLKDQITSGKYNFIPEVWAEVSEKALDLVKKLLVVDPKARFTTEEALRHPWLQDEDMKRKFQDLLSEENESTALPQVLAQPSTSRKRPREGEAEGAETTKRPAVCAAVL
T5 sequence (Q9H2X6 whole entry): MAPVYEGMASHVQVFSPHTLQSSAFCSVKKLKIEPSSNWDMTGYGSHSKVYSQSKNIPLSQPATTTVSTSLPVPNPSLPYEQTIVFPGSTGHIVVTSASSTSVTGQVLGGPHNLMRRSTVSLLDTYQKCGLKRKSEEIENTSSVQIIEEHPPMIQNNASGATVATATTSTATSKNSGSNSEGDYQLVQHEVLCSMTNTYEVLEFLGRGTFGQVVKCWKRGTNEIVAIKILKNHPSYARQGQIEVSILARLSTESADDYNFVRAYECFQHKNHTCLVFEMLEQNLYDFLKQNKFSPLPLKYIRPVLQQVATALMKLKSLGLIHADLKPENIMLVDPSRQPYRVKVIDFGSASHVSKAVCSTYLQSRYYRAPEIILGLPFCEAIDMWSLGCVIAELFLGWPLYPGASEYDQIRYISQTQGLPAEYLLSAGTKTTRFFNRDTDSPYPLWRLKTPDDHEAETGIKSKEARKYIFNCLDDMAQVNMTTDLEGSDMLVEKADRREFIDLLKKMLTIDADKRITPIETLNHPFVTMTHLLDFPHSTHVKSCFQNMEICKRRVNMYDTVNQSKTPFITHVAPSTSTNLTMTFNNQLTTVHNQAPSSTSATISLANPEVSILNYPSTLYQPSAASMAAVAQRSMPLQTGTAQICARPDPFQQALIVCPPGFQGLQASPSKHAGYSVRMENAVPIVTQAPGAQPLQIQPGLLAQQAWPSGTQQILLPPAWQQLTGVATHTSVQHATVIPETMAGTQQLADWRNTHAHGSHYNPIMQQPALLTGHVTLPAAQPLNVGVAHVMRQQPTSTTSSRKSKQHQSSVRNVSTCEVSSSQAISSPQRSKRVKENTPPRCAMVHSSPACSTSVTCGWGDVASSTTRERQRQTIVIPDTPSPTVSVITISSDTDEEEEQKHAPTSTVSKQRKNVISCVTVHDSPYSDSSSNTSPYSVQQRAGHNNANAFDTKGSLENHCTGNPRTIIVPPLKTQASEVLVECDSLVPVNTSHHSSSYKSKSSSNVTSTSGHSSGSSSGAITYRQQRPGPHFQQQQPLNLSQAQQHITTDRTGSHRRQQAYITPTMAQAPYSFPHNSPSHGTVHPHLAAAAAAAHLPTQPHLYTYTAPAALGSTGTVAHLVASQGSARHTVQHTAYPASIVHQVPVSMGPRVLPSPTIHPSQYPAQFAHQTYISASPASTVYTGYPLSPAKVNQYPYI
T1 sequence (Q8IY84 whole entry): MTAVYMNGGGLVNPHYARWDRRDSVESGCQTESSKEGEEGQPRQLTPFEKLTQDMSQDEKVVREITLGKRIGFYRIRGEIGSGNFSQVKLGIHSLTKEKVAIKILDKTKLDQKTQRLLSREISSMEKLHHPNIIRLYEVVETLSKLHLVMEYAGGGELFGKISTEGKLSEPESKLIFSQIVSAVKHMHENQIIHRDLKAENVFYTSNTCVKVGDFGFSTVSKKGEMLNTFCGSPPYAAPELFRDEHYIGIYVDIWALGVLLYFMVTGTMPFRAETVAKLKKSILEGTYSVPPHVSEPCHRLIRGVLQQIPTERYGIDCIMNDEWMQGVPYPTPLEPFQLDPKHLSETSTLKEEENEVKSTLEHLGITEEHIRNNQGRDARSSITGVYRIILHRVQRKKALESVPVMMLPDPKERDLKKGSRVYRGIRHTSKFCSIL
T3 sequence (P11309 whole entry): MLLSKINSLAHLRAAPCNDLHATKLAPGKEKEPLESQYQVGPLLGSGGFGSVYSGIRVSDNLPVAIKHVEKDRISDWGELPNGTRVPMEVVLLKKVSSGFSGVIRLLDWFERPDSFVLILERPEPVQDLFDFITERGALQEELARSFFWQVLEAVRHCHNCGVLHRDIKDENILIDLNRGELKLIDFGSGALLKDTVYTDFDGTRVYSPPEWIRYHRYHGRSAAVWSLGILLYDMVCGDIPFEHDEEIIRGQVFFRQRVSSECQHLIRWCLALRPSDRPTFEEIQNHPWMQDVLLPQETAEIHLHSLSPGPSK
T8 sequence (Q13882 whole entry): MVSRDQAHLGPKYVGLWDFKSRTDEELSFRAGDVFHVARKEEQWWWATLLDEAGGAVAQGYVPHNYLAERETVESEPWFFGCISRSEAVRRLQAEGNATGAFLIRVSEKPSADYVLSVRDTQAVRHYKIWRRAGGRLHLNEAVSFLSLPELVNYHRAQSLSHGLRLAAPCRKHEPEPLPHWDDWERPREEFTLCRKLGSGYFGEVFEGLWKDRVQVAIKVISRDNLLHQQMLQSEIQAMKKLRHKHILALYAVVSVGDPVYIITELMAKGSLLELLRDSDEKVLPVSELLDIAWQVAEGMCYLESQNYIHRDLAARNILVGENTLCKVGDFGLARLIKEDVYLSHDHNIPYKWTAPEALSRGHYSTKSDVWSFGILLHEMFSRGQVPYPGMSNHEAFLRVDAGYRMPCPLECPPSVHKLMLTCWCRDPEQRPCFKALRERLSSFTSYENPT

As to `CONC(=O)c1ccccc1Nc1cc(Nc2cc(C)nn2C(C)C)ncc1Cl` [GSK2256098], the remaining activity at 1 µM amounted to 85% on NIM1(h); 105% on ZAP-70(h); 87% on Pim-1(h); 59% on CHK2(h); 94% at HIPK2(h); 93% at IKKα(h). Also, the remaining activity at 1 µM on PKC μ(h) came out at 109%; on BRK(h) it was 67%.

On to `CNC(=O)c1cccc(C)c1Nc1nc(Nc2ccc(N3CCN(C4C5CC6CC4CC(O)(C6)C5)CC3)cc2OC)ncc1C(F)(F)F` (stereo not drawn) [SJP1602, 2-((2-((4-(4-((2s,5r)-5-hydroxyadamantan-2-yl)piperazin-1-yl)-2-methoxyphenyl)amino)-5-(trifluoromethyl)pyrimidin-4-yl)amino)-N,3-dimethylbenzamide], for which the remaining activity at 1 µM at NIM1(h) turned out to be 95%; on ZAP-70(h), 124%; at Pim-1(h) it was 87%; at CHK2(h) it was 51%; at HIPK2(h), 100%; at IKKα(h), 130%. In addition, the remaining activity at 1 µM at PKC μ(h) was determined as 113%; at BRK(h), 109%.

In the case of `CNC(=O)c1ccc(Nc2ncc(C(F)(F)F)c(NCc3nccnc3N(C)S(C)(=O)=O)n2)cc1` [VS-6063, Defactinib], the remaining activity at 1 µM is 78% on NIM1(h); 139% on ZAP-70(h); 86% at Pim-1(h); 71% on CHK2(h); 16% at HIPK2(h); 125% at IKKα(h). Moreover, the values for the remaining activity at 1 µM at PKC μ(h) and at BRK(h) were 100% and 91%, respectively.
